Test results: ChEMBL document CHEMBL1201862, “PubChem BioAssay data set” (2004)
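A five-concentration, 48-hour dose response in 96-well plates underlies each endpoint, interpolated linearly between surrounding concentrations. Here, GI50 denotes the concentration required for 50% inhibition of growth.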 Activity calls are given as the source filed them. No stated cut-off is given here; in the data, active = GI50 up to about 1.1 µM and inactive = higher.

What was measured:
Assay in all cases: DTP human tumour cell line panel, 48 h
[1] = system: SK-OV-3
[2] = system: KM12
[3] = system: 786-0
[4] = system: Malme-3M
[5] = system: CCRF-CEM
[6] = system: SNB-75
[7] = system: HOP-62
[8] = system: SK-MEL-2
[9] = system: NCI/ADR-RES
[10] = system: SF-539
[11] = system: M14
[12] = system: RXF 393
[13] = system: IGROV-1
[14] = system: HOP-92
[15] = system: U-251
[16] = system: K562
[17] = system: SK-MEL-5
[18] = system: CAKI-1
[19] = system: NCI-H226
[20] = system: NCI-H522

| SMILES | GI50 [1] | GI50 [2] | GI50 [3] | GI50 [4] | GI50 [5] | GI50 [6] | GI50 [7] | GI50 [8] | GI50 [9] | GI50 [10] | GI50 [11] | GI50 [12] | GI50 [13] | GI50 [14] | GI50 [15] | GI50 [16] | GI50 [17] | GI50 [18] | GI50 [19] | GI50 [20] |
| --- | --- | --- | --- | --- | --- | --- | --- | --- | --- | --- | --- | --- | --- | --- | --- | --- | --- | --- | --- | --- |
| CC(C)CC(NC(=O)C(O)C(N)Cc1ccccc1)C(=O)O (stereo unspecified) | > 100 µM (inactive) | > 100 µM (inactive) | > 100 µM (inactive) | > 100 µM (inactive) | > 100 µM (inactive) | > 100 µM (inactive) | > 100 µM (inactive) | > 100 µM (inactive) | > 100 µM (inactive) | > 100 µM (inactive) | > 100 µM (inactive) | > 100 µM (inactive) | > 100 µM (inactive) | > 100 µM (inactive) | > 100 µM (inactive) | > 100 µM (inactive) | > 100 µM (inactive) | > 100 µM (inactive) | > 100 µM (inactive) | – |
| [N-]=[N+]=NCc1nc(N)c2c3c(sc2n1)CCCC3 | 11.6 µM (inactive) | 0.979 µM (active) | 0.455 µM (active) | 1.55 µM (inactive) | – | 7.69 µM (inactive) | 3.72 µM (inactive) | 9.38 µM (inactive) | 1.99 µM (inactive) | 1.6 µM (inactive) | 3.46 µM (inactive) | 5.4 µM (inactive) | 1.2 µM (inactive) | 0.402 µM (active) | 2.47 µM (inactive) | 4.22 µM (inactive) | 1.36 µM (inactive) | 1.56 µM (inactive) | 2.14 µM (inactive) | – |
| Fc1ccccc1C1SCc2nc3cc4ccccc4cc3n21 (stereo unspecified) | 71.6 µM (inactive) | > 100 µM (inactive) | 20.5 µM (inactive) | > 100 µM (inactive) | > 100 µM (inactive) | 31.7 µM (inactive) | > 100 µM (inactive) | > 100 µM (inactive) | 49.1 µM (inactive) | – | > 100 µM (inactive) | 13.3 µM (inactive) | 62.5 µM (inactive) | – | 33.7 µM (inactive) | > 100 µM (inactive) | 71.1 µM (inactive) | 37 µM (inactive) | 75.5 µM (inactive) | 18.7 µM (inactive) |
| O=C1NC(=O)/C(=C/c2ccc(S(=O)(=O)N/N=C/c3ccccc3)cc2)N1 | > 100 µM (inactive) | > 100 µM (inactive) | > 100 µM (inactive) | > 100 µM (inactive) | > 100 µM (inactive) | > 100 µM (inactive) | > 100 µM (inactive) | > 100 µM (inactive) | > 100 µM (inactive) | – | > 100 µM (inactive) | > 100 µM (inactive) | > 100 µM (inactive) | > 100 µM (inactive) | > 100 µM (inactive) | > 100 µM (inactive) | > 100 µM (inactive) | > 100 µM (inactive) | > 100 µM (inactive) | – |
| CC1CN=C(N(C(=O)Nc2ccc(Cl)c(Cl)c2)c2ccccc2)S1 (stereo unspecified) | – | 32.1 µM (inactive) | 43.4 µM (inactive) | 76.7 µM (inactive) | 31.9 µM (inactive) | 56.2 µM (inactive) | > 100 µM (inactive) | 23 µM (inactive) | 34.8 µM (inactive) | 39.4 µM (inactive) | 35.3 µM (inactive) | – | > 100 µM (inactive) | 38.9 µM (inactive) | 53.5 µM (inactive) | > 10 µM (inactive) | 20.7 µM (inactive) | 77.6 µM (inactive) | – | – |
| Cn1cc(C(=O)c2nccc3c2cnc2ccccc23)ccc1=O | > 100 µM (inactive) | > 100 µM (inactive) | > 100 µM (inactive) | > 100 µM (inactive) | > 100 µM (inactive) | 29.4 µM (inactive) | 25.9 µM (inactive) | > 100 µM (inactive) | > 100 µM (inactive) | > 100 µM (inactive) | > 100 µM (inactive) | < 0.01 µM (active) | – | > 100 µM (inactive) | > 100 µM (inactive) | > 100 µM (inactive) | 15.3 µM (inactive) | 13.2 µM (inactive) | > 100 µM (inactive) | – |
| C=C[C@H]1CN2CCc3c([nH]c4c([C@@H]5CCCN5C)c(O)ccc34)[C@@H]2C[C@@H]1C[C@H]1c2[nH]c3ccccc3c2CCN1C | 1.62 µM (inactive) | 1.41 µM (inactive) | 0.437 µM (active) | – | 0.188 µM (active) | 0.813 µM (active) | 1.31 µM (inactive) | 1.91 µM (inactive) | 1.61 µM (inactive) | 1.57 µM (inactive) | 0.307 µM (active) | 0.215 µM (active) | 1.31 µM (inactive) | 1.19 µM (inactive) | 1.49 µM (inactive) | 0.255 µM (active) | 1.66 µM (inactive) | 1.61 µM (inactive) | 1.67 µM (inactive) | – |
| O=c1cccc2n1C[C@H]1CNC[C@H]2C1 | > 100 µM (inactive) | > 100 µM (inactive) | > 100 µM (inactive) | > 100 µM (inactive) | > 100 µM (inactive) | > 100 µM (inactive) | > 100 µM (inactive) | > 100 µM (inactive) | > 100 µM (inactive) | > 100 µM (inactive) | > 100 µM (inactive) | 47 µM (inactive) | – | > 100 µM (inactive) | > 100 µM (inactive) | > 100 µM (inactive) | > 100 µM (inactive) | > 100 µM (inactive) | > 100 µM (inactive) | – |
| CCCCN=C(OC1C=CCCC1)SC (stereo unspecified) | > 100 µM (inactive) | – | > 100 µM (inactive) | > 100 µM (inactive) | > 100 µM (inactive) | 51.9 µM (inactive) | > 100 µM (inactive) | – | > 100 µM (inactive) | – | > 100 µM (inactive) | – | > 100 µM (inactive) | 43.4 µM (inactive) | > 100 µM (inactive) | > 100 µM (inactive) | > 100 µM (inactive) | – | > 100 µM (inactive) | – |
| Cn1nc(C(=O)N2CC(CCl)c3c2cc(N)c2ccccc32)cc1NC(=O)Nc1cc(C(=O)N2CC(CCl)c3c2cc(N)c2ccccc32)nn1C (stereo unspecified) | 0.3 µM (active) | 0.948 µM (active) | 0.0547 µM (active) | 0.21 µM (active) | < 0.01 µM (active) | 0.0185 µM (active) | 0.682 µM (active) | 0.13 µM (active) | > 100 µM (inactive) | 0.016 µM (active) | 0.349 µM (active) | 0.0447 µM (active) | – | – | 0.0212 µM (active) | 0.231 µM (active) | 0.192 µM (active) | 0.254 µM (active) | – | – |
| Cc1c2c(n(CCc3ccccc3)c1C)N(C)N=C(C#N)S2(=O)=O | > 100 µM (inactive) | > 100 µM (inactive) | > 100 µM (inactive) | – | – | > 100 µM (inactive) | > 100 µM (inactive) | > 100 µM (inactive) | > 100 µM (inactive) | 7.69 µM (inactive) | > 100 µM (inactive) | > 100 µM (inactive) | > 100 µM (inactive) | – | > 100 µM (inactive) | > 10 µM (inactive) | > 100 µM (inactive) | > 100 µM (inactive) | > 100 µM (inactive) | > 100 µM (inactive) |
| Cc1cc(NC2=NCCO2)c2c(c1C)CCCC2 | 20.4 µM (inactive) | 13.2 µM (inactive) | 17.2 µM (inactive) | 11.6 µM (inactive) | 19 µM (inactive) | 19.2 µM (inactive) | 13.3 µM (inactive) | – | 18.1 µM (inactive) | 0.0536 µM (active) | 11.1 µM (inactive) | 39.3 µM (inactive) | 21.8 µM (inactive) | 0.906 µM (active) | 18.5 µM (inactive) | – | 15.7 µM (inactive) | – | 1.27 µM (inactive) | – |
| CC(=O)NC(C)(C)C1CC=C(C)CC1 (stereo unspecified) | > 100 µM (inactive) | > 100 µM (inactive) | > 100 µM (inactive) | > 100 µM (inactive) | > 100 µM (inactive) | > 100 µM (inactive) | > 100 µM (inactive) | – | > 100 µM (inactive) | > 100 µM (inactive) | > 100 µM (inactive) | > 100 µM (inactive) | > 100 µM (inactive) | – | > 100 µM (inactive) | > 100 µM (inactive) | > 100 µM (inactive) | > 100 µM (inactive) | > 100 µM (inactive) | – |
| O=C(O)c1nn(-c2ccccc2)nc1-c1nn(-c2ccccc2)nc1C(=O)O | > 100 µM (inactive) | > 100 µM (inactive) | > 100 µM (inactive) | > 100 µM (inactive) | > 100 µM (inactive) | – | > 100 µM (inactive) | > 100 µM (inactive) | > 100 µM (inactive) | > 100 µM (inactive) | > 100 µM (inactive) | > 100 µM (inactive) | > 100 µM (inactive) | > 100 µM (inactive) | > 100 µM (inactive) | > 100 µM (inactive) | > 100 µM (inactive) | > 100 µM (inactive) | > 100 µM (inactive) | – |
| CC(=O)O[C@H]1[C@H](OC(=O)CC(C)(O)CC(=O)O)C[C@]2(C)C3=C(CCC2C1(C)C)[C@]1(C)CC[C@H]([C@H]2CC[C@H](C(C)(C)O)OC2O)[C@@]1(C)[C@@H](O)C3 (stereo partly specified) | 16.7 µM (inactive) | 19.7 µM (inactive) | 18.4 µM (inactive) | 23.7 µM (inactive) | 22 µM (inactive) | – | 16.3 µM (inactive) | 18.8 µM (inactive) | > 100 µM (inactive) | – | 17.8 µM (inactive) | – | 17.1 µM (inactive) | 16.9 µM (inactive) | 19.8 µM (inactive) | 26.2 µM (inactive) | 17.2 µM (inactive) | 16.9 µM (inactive) | 23.8 µM (inactive) | – |
| CN(CCO)c1nc(=O)c2c([nH]1)CCC2 | > 100 µM (inactive) | > 100 µM (inactive) | > 100 µM (inactive) | > 100 µM (inactive) | > 100 µM (inactive) | 43.9 µM (inactive) | > 100 µM (inactive) | > 100 µM (inactive) | – | > 100 µM (inactive) | > 100 µM (inactive) | > 100 µM (inactive) | > 100 µM (inactive) | > 100 µM (inactive) | > 100 µM (inactive) | > 100 µM (inactive) | > 100 µM (inactive) | > 100 µM (inactive) | > 100 µM (inactive) | > 100 µM (inactive) |
